Key:
Format in all cases: biochemical
Human IDO1 His-Tag = molecular target: T1, Human IDO1 His-Tag (Homo sapiens, UniProt P14902); assay: IDO1 Inhibitor Screening Assay (BPS Bioscience kit, absorption at 321 nm); settings: room temperature, 3 hours; N.D. = Not Detected
T1 construct: purchased BPS Bioscience
Description: IDO1 (indoleamine 2,3-dioxygenase-1) catalyzes the oxidative cleavage of the pyrrole ring of tryptophan to yield N′-formylkynurenine. The amount of N′-formylkynurenine product is able to be detected by the absorption at the wavelength of 321 nm. IDO1 inhibitor Screening Assay kit (BPS Bioscience) was used to test the compound. The assay was performed as described in the assay protocol.
IDO1 reaction solution (90 μl) was aliquoted into each well of a 96-well plate. 5 μl of the compound solution in 10% DMSO was added to each well. 5 μl 10% DMSO was added to the positive control and blank wells. Human IDO1 His-Tag was diluted to 40 ng/μl in 1×IDO1 Assay buffer. The reaction was initiated by adding 5 μl of diluted IDO1. In the blank well, only 1×IDO1 assay buffer was added instead. After incubating at room temperature for 3 hours, the absorption was measured at the wavelength of 321 nm using a microplate reader.
(§1) The relative activity, I, was the ratio of former to later, i.e. X/Y, expressed in percentile. The IC50 was the concentration of the compounds when X/Y equals 50 and calculated based on the dose-response curve.

Human TDO His-Tag = molecular target: T2, Human TDO His-Tag (Homo sapiens, UniProt P48775); assay: TDO Inhibition Screening Assay (BPS Bioscience kit, absorption at 321 nm); settings: room temperature, 1.5 hours
T2 construct: purchased BPS Bioscience
T2 sequence (P48775 whole entry): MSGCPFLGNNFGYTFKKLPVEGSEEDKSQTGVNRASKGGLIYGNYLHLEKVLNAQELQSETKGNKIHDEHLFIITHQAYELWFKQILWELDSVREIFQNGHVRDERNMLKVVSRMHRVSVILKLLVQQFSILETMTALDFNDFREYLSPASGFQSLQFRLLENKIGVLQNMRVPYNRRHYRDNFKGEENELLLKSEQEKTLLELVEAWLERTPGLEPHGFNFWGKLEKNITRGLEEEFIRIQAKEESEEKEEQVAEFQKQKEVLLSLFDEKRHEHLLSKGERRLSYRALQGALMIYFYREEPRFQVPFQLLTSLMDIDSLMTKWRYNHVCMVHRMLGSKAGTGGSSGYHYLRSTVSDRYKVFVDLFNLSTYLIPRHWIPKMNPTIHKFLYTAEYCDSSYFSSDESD
Description: The TDO inhibitor Screening Assay kit (BPS Bioscience) was used to test for TDO inhibition by Compound Nos. D42 and D46. The protocol is similar to IDO1 assay. TDO reaction solution (90 μl) was aliquoted into each well of a 96-well plate. 5 μl of compound solution in 10% DMSO was added to each well. 5 μl 10% DMSO was added to the positive control and blank wells. Human TDO His-Tag was diluted in 1×TDO Assay buffer at 50 ng/μl. The reaction was initiated by adding 5 μl diluted TDO. 1×TDO assay buffer was added to the blank well. After incubating at room temperature for 1.5 hours, the absorption was measured at the wavelength of 321 nm. The IC50 was calculated as described for TDO inhibition. The relative activity and IC50 was calculated as described above in Examples 3 and 4.

Human IDO2 His-Tag = molecular target: T3, Human IDO2 His-Tag (Homo sapiens, UniProt Q6ZQW0); assay: IDO2 Inhibitor Screening Assay (BPS Bioscience kit, absorption at 321 nm); settings: room temperature, 3 hours
T3 construct: purchased BPS Bioscience
T3 sequence (Q6ZQW0 1-407): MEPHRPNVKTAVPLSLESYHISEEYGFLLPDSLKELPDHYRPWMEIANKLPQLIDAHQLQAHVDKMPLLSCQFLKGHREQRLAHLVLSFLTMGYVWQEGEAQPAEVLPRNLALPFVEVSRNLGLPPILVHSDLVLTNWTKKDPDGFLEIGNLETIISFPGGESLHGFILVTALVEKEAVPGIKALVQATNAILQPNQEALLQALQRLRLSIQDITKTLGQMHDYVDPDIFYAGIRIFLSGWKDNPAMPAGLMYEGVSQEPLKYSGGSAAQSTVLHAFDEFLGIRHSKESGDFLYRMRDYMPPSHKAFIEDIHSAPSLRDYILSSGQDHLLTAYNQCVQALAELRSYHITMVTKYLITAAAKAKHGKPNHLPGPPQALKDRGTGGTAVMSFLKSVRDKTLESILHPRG
Description: To evaluate the selectivity of IDO inhibition for Compounds Nos. D42 and D46, an assay to measure activity against IDO2 was performed. The IDO2 Inhibitor Screening Assay kit (BPS Bioscience) was used for IDO2 test. The protocol is similar to IDO1 assay. IDO2 reaction solution (90 μl) was aliquoted into each well of a 96-well plate. 5 μl of compound solution in 10% DMSO was added to each well. 5 μl 10% DMSO was added to the positive control and blank wells. Human IDO2 His-Tag was diluted in 1×IDO2 Assay buffer at 400 ng/μl. The reaction was initiated by adding 5 μl diluted IDO2. 1×IDO2 assay buffer to the blank well. After incubating at room temperature for 3 hours, the absorption was measured at the wavelength of 321 nm. The IC50 was calculated as described for IDO2.
as §1, with “The test compound inhibition was measured as X-fold. The control solution (DMSO) was measured as Y-fold. The relative” for “The relative”

T1 sequence (P14902 whole entry): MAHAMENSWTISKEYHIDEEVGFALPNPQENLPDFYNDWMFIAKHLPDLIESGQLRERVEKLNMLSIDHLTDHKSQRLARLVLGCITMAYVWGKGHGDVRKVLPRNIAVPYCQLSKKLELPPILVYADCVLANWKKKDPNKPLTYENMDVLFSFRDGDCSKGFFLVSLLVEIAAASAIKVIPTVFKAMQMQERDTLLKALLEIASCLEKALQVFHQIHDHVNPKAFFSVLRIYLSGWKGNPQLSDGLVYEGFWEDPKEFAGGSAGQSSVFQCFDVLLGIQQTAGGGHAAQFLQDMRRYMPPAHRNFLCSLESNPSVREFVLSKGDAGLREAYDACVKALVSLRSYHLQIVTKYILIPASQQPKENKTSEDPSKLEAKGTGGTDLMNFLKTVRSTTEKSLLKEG

SMILES | IC50 (Human IDO1 His-Tag) [nM] | IC50 (Human TDO His-Tag) [µM] | IDO2 inhibition (Human IDO2 His-Tag)
N#Cc1ccc(NC(=O)NCC2c3ccccc3-c3cncn32)cc1 (stereo not drawn) [D42, 1-((5H-imidazo[5,1-a]isoindol-5-yl)methyl)-3-(4-cyanophenyl)urea] | 61 | 0.064 | No IDO2 inhibition was detected
N#Cc1ccc(NC(=O)NCCC2c3ccccc3-c3cncn32)cc1 (stereo not drawn) [D46, 1-(2-(5H-imidazo[5,1-a]isoindol-5-yl)ethyl)-3-(4-cyanophenyl)urea] | 325 | 0.064 | No IDO2 inhibition was detected
